# Data taken from patent publication US20260250721A1, “Biological Anisole Production” (Wageningen Universiteit, priority 2023, published 2026).
# Changes are numbered by the printed parent chain. In names and notes the source's numbering stands.
# B1: CVOMT1: chavicol O-methyltransferase (EC 2.1.1.146) from Ocimum basilicum, SEQ ID NO:1 (protein, listed as Ocimum basilicum)
# chain: MALQNMDISLSTEQLLQAQAHVWNHMYAFANSMSLKCAIQLGIPDILHKHDHPMTLSQLLKAIPINKEKSQSFQRLMRALVNSNFFIEENSNNQEVCYWLTPASRLLLKGAPLTVAPLVQVVLDPTFTNPWHYMSEWFKHENHATQFEAANGCTFWEKLANKPSMGRFFDEAMSCDSRLVAHVLTKDYKHVIDGIRTLVDVGGGNGTMAKAIVEAVPTMKCTVLDLPHVVAGLESTDKLSYIGGDMFQSIPSADAILLKFIIHDWDDEEGLKILKRCKDAVGIGGKVIIIDVVVGVNHDVDEVLEDQLHFDMAMMSYFNAKERTMNEWEKLISAAGFTSYKLTPAFGVRSLIEAYP
# B2: POMT1: evolved phenol O-methyltransferase, SEQ ID NO:1 with D264N alteration (SEQ ID NO:3) (protein)
# chain: B1 chain with D264N
# Assays:
# P. putida KT2440 = experiment: Toxicity analysis: growth of P. putida KT2440 at different phenol and anisole concentrations
# Experimental: (§1) P. putida and E. coli cultures were incubated at 30° C. and 37° C. respectively. For cloning purposes, both strains were propagated in Lysogeny Broth (LB) medium containing 10 g/L NaCl, 10 g/L tryptone, and 5 g/L yeast extract. For the preparation of solid media, 1.5% (w/v) agar was added. […] All growth experiments were performed using M9 minimal medium (per Liter; 3.88 g K2HPO4, 1.63 g NaH2PO4, 2.0 g (NH4)2SO4, pH 7.0. The M9 media was supplemented with a trace elements solution (10 mg/L ethylenediaminetetraacetic acid (EDTA), 0.1 g/L MgCl2 6 H2O, 2 mg/L ZnSO4·7H2O, 1 mg/L CaCl2)·2H2O, 5 mg/L FeSO4·7 H2O, 0.2 mg/L Na2MoO4·2H2O, 0.2 mg/L CuSO4·5H2O, 0.4 mg/L CoCl2·6H2O, 1 mg/L MnCl2·2H2O). In these experiments, strains were precultured in 10 mL LB with corresponding antibiotics. Then, the cultures were washed twice in M9 media without a carbon source. Finally, the cultures were diluted to an OD600 of 0.1 to start the experiment. In all plate reader experiments, a glucose concentration of 10 mM was used. […] Plate reader experiments were carried out in 200 μL of M9 medium using an ELx808 plate reader (BioTek). Growth (OD600) was measured over time using continuous shaking and measurements were taken every three minutes. Flask experiments were performed in 250 mL Erlenmeyer flasks filled with 25 mL of M9 minimal medium containing 50 mM of glucose. […] The cultures were incubated in a rotary shaker at 200 rpm at 30° C.
# The production of aromatic compounds often comes with unwanted toxicity. One way of circumventing this is the utilization of microbial hosts with high tolerance towards aromatic compounds (Li et al., 2020. Biotechnol Adv 41: 107548).
# The presence of phenolic hydroxyl groups has been associated with the inhibition of microbial enzymes and the damage of the bacterial membrane (Miklasinska-Majdanik et al., 2018. Int J Environ Res Public Health 15: 2321).
# [1] = Abiotic escape of anisole from M9 minimal media overnight; assay type: physicochemical; conditions: 2 mM anisole in M9 minimal media, flasks
# [2] = Distribution of anisole and phenol between water and organic solvent after 1 h; assay type: physicochemical; conditions: 1 mM in water, equal volume of dodecane, ethyl acetate, isopropyl myristate or tributyrin
# Experimental: A main bottleneck when producing anisole is its volatility. To overcome this problem an organic solvent can be used in biphasic fermentation to quantify volatile or insoluble products in water, allowing their recovery. To enable in situ anisole extraction, we tested four organic solvents: dodecane, ethyl acetate, isopropyl myristate, and tributyrin. […] Next, 0.9 ml of the stock solution was mixed with an equal volume of one of the selected solvents in an Eppendorf tube.
# Therefore, dodecane was chosen as the solvent for anisole extraction.
# [3] = Anisole capture at different dodecane ratios, 24 h flasks; assay type: physicochemical; conditions: 30° C., 250 rpm
# Experimental: An additional experiment was performed to determine the optimal ratio of the two phases. Ratios of 0%, 5%, 15%, 30%, 50%, and 100% dodecane were tested in a total volume of 25 ml. […] Next, dodecane was added to the flasks according to the predetermined ratios. Flasks were incubated for 24 h at 30° C. and 250 rpm to simulate P. putida KT2440 growth. After incubation, samples were collected separately from each phase and concentrations were measured using HPLC. […] After 24 hours, samples containing the organic phase from 5% and 15% dodecane flasks captured on average 19.42% and 39.57% of the initial concentration of anisole, respectively. […] Flasks containing 30% dodecane, extracted approximately 75% of the anisole which was further increased to nearly 95% flasks with a 50% ratio.
# phenol [4] = experiment: Phenol consumption and anisole production by P. putida KT2440 expressing CVOMT1; assay type: cell-based, Pseudomonas putida; conditions: 50 mM glucose, 1 mM phenol
# Experimental: as §1
# phenol [5] = experiment: Phenol consumption and anisole production, CVOMT1 vs POMT1 in P. putida KT2440 with 50% dodecane; assay type: cell-based, Pseudomonas putida; conditions: for anisole produced, maximum / phenol consumed: 50 mM glucose, 1 mM phenol, 1 mM methionine, 50% dodecane; for phenol consumed: 24 hours
# Experimental: Cell growth was determined by measuring the optical density at 600 nm (OD600) using an OD600 DiluPhotometer spectrophotometer (IMPLEN) or a Synergy plate reader (BioTek Instruments). Analysis of glucose in supernatants was performed using high-performance liquid chromatography (HPLC) (Thermo Fisher Scientific) equipped with an Aminex HPX-87H column. The mobile phase was 5 mM of H2SO4 at a flow rate of 0.6 mL/min, the column temperatures were held at 60° C. and the compounds were detected using a Shodex RI-101 detector (Shodex). […] The mobile phase consisted of Milli-Q water (A), 100 mM formic acid (B) and acetonitrile (C) with a flow rate of 1 mL/min at 30° C. Chromatographic separation of analytes was attained using the following gradient program: t=0-5 min: A-55%, B-10% and C-35% from t=5-10 min ramp to A-10%, B-10% and C-80% and held until 15 min. Then from t=15-16 min, the gradient was returned to A-55%, B-10% and C-35% and maintained isocratic for a total run time of 18 min. For quantification, calibration curves were prepared using pure standards (purity) purchased from Sigma-Aldrich.
# Next, an aim was set to examine the anisole production rate of POMT1 compared to CVOMT1. […] An initial sample was taken and hereafter 50% dodecane was added. Cells were then incubated overnight at 30° C. and 250 rpm. Samples were taken at time zero only from the medium and then after 24 hours from both phases and analyzed at the HPLC.
# phenol [6] = experiment: Growth-coupled methyltransferase selection in CM-Aux; assay type: cell-based, Pseudomonas putida
# Text: This design relies on the conversion of methionine into cysteine through the intermediate homocysteine with the aid of a SAM-dependent methyltransferase. Exogenously added methionine is converted into SAM, which would subsequently be converted into S-adenosyl-l-homocysteine (SAH) by CVOMT1 (FIG. 8C). Then, SAH is converted into homocysteine and subsequently into cysteine by reverse trans-sulfuration restoring growth in the process.
# Next, an aim was set to install the reverse trans-sulfuration module which will convert homocysteine to the amino acid cysteine. This is a two-step process, catalyzed by the enzymes cystathionine-β-synthase and cystathionine-γ-lyase. The C-module was created by cloning the cystathionine-β-synthase (Cys) from S. cerevisiae and the cystathionine-γ-lyase (PA) from Pseudomonas aeruginosa on a pSEVAb62 backbone. The CM-Aux strain was equipped with the C-module and growth of the strain in minimal media was assessed. In all cases, growth could only occur upon the expression of the C-module. This module converts homocysteine to […], and if active, produces cysteine, restoring growth (FIG. 8A). […]
# Next, an aim was set to examine the anisole production rate of POMT1 compared to CVOMT1. […] Samples were taken at time zero only from the medium and then after 24 hours from both phases and analyzed at the HPLC.
molecule,measurement,setting,value
COc1ccccc1 [anisole],effect on growth,P. putida KT2440,did not show any detrimental effects on growth
same,anisole disappeared from media,[1],89%
same,capture of anisole by organic solvents,[2],successfully captured
same,anisole in water phase,[3]; 0% dodecane,almost undetectable
same,"anisole captured in organic phase, of initial concentration",[3]; 5% dodecane,19.42%
same,"anisole captured in organic phase, of initial concentration",[3]; 15% dodecane,39.57%
same,anisole extracted,[3]; 30% dodecane,approximately 75%
same,anisole extracted,[3]; 50% dodecane,~95%
Oc1ccccc1 [phenol],concentration up to which growth rates did not deviate,P. putida KT2440; growth of P. putida KT2440,up to 2 mM
same,concentration with detrimental effect on growth rate and final cell density,P. putida KT2440; growth of P. putida KT2440,≥ 3000 µM
same,phenol concentration the strain was able to withstand,P. putida KT2440; growth of P. putida KT2440,up to 5 mM
B1,anisole yield of the converted phenol,phenol [4]; 1 mM methionine added,15.5 % mol/mol
same,anisole detection,phenol [4]; no methionine,no anisole was detected
same,phenol consumed,"phenol [4]; no methionine, 24 hours",0.12 mM
same,"anisole produced, maximum",phenol [5],0.06 mM
same,phenol consumed,phenol [5],0.23 mM
same,doubling time,"phenol [6]; CM-Aux with C- and A-module, phenol and methionine added (1 mM)",1.8 h
B2,increase in anisole concentration compared to wild-type enzyme,phenol [5],2.33 fold
same,"anisole produced, maximum",phenol [5],0.14 mM
same,phenol consumed,phenol [5],0.38 mM
same,phenol consumption more than CVOMT1,phenol [5]; within 24 hours,65%
same,phenol concentration at which maximum growth rate is reached,"phenol [6]; CM-Aux, 1 mM methionine, different phenol concentrations",0.2 mM
